Test results: US10729668B2, “Ketobutyrate compounds and compositions for treating age-related symptoms and diseases” (The Regents of the University of California, priority 2014, dated 2020)

What was measured:
HCV = test: Renilla reporter HCV infection of Huh7.5 cells, luciferase activity; type: cell-based; conditions: 1 mM and 1 μM, 72 hours post treatment
Procedure: (§1) As subjects age, their susceptibility to infection increases. Therefore, to determine whether α-KB reduces ones susceptibility to age-related infection, Huh7.5 cells were infected with the Renilla reporter HCV for 5 hours and subsequently treated with 1 mM and 1 μM of α-KB. 72 hours post treatment, the cells were lysed and luciferase activity was measured. JG-98, which is a suppressor of viral assembly, was used as a positive control and water was used as a negative control. […] To ensure that the anti-viral activity of α-KB is not the result of cytotoxicity, Huh7.5 cells were treated with 1 mM, 100 μM, 10 μM, 1 μM, and 100 nM α-KB. MTT assays were performed every 24 hours up to 72 hours post treatment. Luteolin, an anti-cancer compound which is cytotoxic, was used as a positive control and water was used as a negative control.

[1] = tested on: Aged mice (22-23 month old C57BL/6J); test: Aged mice fed α-KB in drinking water for 7 months; type: in vivo
Procedure: Aged mice (22-23 month old C57BL/6J), including both males and females, were fed either water or α-KB (8 mM in drinking water or 90 mg/kg body weight) for 7 months. […] Mice were examined at least twice a week for signs of ill health, and severely sick or immobilized mice were subject to termination. The lifespan of α-KB treated male group was extended. All the males in untreated control group (5 of 5) died or were terminated due to severe illness before the completion of the 7 months test. Remarkably, most of the males in the α-KB treated group (4 of 5) lived healthily and were still in excellent health at the end of the 7 months study period.

C2C12 Cells [2] = test: Oxygen consumption rate (OCR) in C2C12 cells, Seahorse XF-24; type: cell-based, mouse; conditions: 1 hour treatment
Procedure: Measurement of oxygen consumption rates (OCR). OCR measurements were made using a Seahorse XF-24 analyzer (Seahorse Bioscience). C2C12 Cells were seeded in Seahorse XF-24 cell culture microplates at 30,000 cells per well in DMEM media supplemented with 10% FBS and 10 mM glucose, and incubated at 37° C. and 5% CO2 overnight. Treatment with α-KB or DMSO (vehicle control) was for 1 hour. Cells were washed in unbuffered DMEM medium (pH 7.4, 10 mM glucose) just before measurements, and maintained in this buffer with indicated concentrations of α-KB. OCR was measured three times under basal conditions and normalized to protein concentration per well.

[3] = biological target: TOR (target of rapamycin) (Homo sapiens, UniProt P42345); test: TOR inhibition
NADH dehydrogenase = test: Electron flow assay, isolated liver mitochondria; type: biochemical, mouse
Procedure: Animal studies were performed under approved UCLA animal research protocols. Mitochondria from 3-month-old C57BL/6 mice were isolated. Briefly, livers were extracted, minced at 4° C. in MSHE+BSA (70 mM sucrose, 210 mM mannitol, 5 mM HEPES, 1 mM EGTA, and 0.5% fatty acid free BSA, pH 7.2), and rinsed several times to remove blood. All subsequent steps were performed on ice or at 4° C. The tissue was disrupted in 10 volumes of MSHE+BSA with a glass Dounce homogenizer (5-6 strokes) and the homogenate was centrifuged at 800×g for 10 minutes to remove tissue debris and nuclei. The supernatant was decanted through a cell strainer and centrifuged at 8,000×g for 10 minutes. […] Isolated mitochondrial respiration was measured by running coupling and electron flow assays as described. […] After basal readings, the sequential injections were as follows: 2 μM rotenone (Complex I inhibitor), 10 mM succinate (Complex II substrate), 4 μM antimycin A (Complex III inhibitor), and 10 mM/100 μM ascorbate/tetramethylphenylenediamine (Complex IV substrate). […]

[4] = tested on: nuo-6(qm200), daf-2(e1370), eat-2(ad1116) mutant C. elegans strains; test: Lifespan of long-lived mutant C. elegans strains; type: in vivo, Caenorhabditis elegans
Source text: The nuo-6 gene encodes the C. elegans ortholog of the NDUFB4/B15 subunit of the mitochondrial electron transport chain complex I, also known as the NADH dehydrogenase complex.

C2C12 Cells [5] = test: Cellular ROS measurement with H2DCF-DA; type: cell-based, mouse; conditions: 3 hours of drug treatment
Procedure: Measurement of ROS. C2C12 cells were seeded in 96-well plates at density of 250,000 cells/mL. Reactive oxygen species (ROS) levels were measured using 2′, 7′-dichlorodihydrofluorescein diacetate (H2DCF-DA) after 3 hours of drug treatment.

Huh7.5 cells = test: MTT cytotoxicity assay; type: cell-based; conditions: 100 nM to 1 mM, up to 72 hours
Procedure: as §1

CCC(=O)C(=O)O [α-KB, α-ketobutyrate]
HCV infection (luciferase activity) (HCV): inhibits or reduces viral infection | adverse effects ([1]; 8 mM in drinking water or 90 mg/kg body weight, 7 months): no adverse effects | gray hair versus untreated group ([1]; aged female mice): reduced | lifespan, females, treated versus untreated ([1]; aged female mice): indistinguishable | hair density versus untreated control ([1]; aged female mice, 7 months): higher | effect on gray hair and hair density ([1]; aged male mice): minimal | lifespan, male group ([1]; aged male mice): extended | males alive and healthy at end of the 7 months study period ([1]; aged male mice): 4 of 5 | cataracts ([1]; aged mice): no cataracts | liver appearance ([1]; male and female aged mice): greatly improved liver appearance | basal respiration (C2C12 Cells [2]): inhibited | maximal respiration (mitochondrial respiration upon FCCP treatment) (C2C12 Cells [2]): inhibited | inhibition of TOR [3]: does not inhibit | respiration in electron flow assay (NADH dehydrogenase): only NADH dehydrogenase related respiration is inhibited | lifespan of daf-2(e1370) strain ([4]; daf-2(e1370)): does extend the lifespan | lifespan of eat-2(ad1116) strain ([4]; eat-2(ad1116)): does extend the lifespan | lifespan of nuo-6(qm200) strain ([4]; nuo-6(qm200)): inability of α-KB to extend the lifespan | cellular ROS (C2C12 Cells [5]): increases the cellular ROS | cytotoxicity (MTT) (Huh7.5 cells): not cytotoxic
